# Tested on: HUVECs
# Assay: Cytotoxicity of [Rull(bpy)3]^2+ on HUVECs (MTT assay)
# Assay type: cell-based, human
# Protocol: FIG. 3 is a graph illustrative of the effect of [Rull(bpy)3]^2+ concentration on the viability of HUVECs. Absorbance of the MTT assay was determined at 490 nm.
# HUVECs (CRL-2873™) thawed from cryopreservation was cultured in Endogro Supplement medium kit (Millipore) supplemented with 1% penicillin streptomycin. Cells were recovered from tissue culture dishes/T25 flask with 0.05% trypsin-ethylenediaminetetraacetic acid (EDTA) in PBS. The cells were routinely passaged at 1/5 confluency. All cells were incubated at 37° C. in a humidified, 5% CO2 atmosphere.
smiles,measurement,setting,value
"[Cl-].[Cl-].[Ru+2].c1ccc(-c2ccccn2)nc1.c1ccc(-c2ccccn2)nc1.c1ccc(-c2ccccn2)nc1 [[Rull(bpy)3]^2+, ruthenium II trisbipyridyl chloride [RuII(bpy)3]^2+]",safe range of [Rull(bpy)3]^2+ concentrations,"HUVECs, MTT assay, absorbance at 490 nm",0.5 to 3.5 mM
same,viability of HUVECs,"higher [Rull(bpy)3]^2+ concentration than the safe range, lower absorbance at 490 nm",reduce the viability of HUVECs
